Key:
[1] = system: right tumor-derived cells of the GBM9 patient; test: PDC-based chemical screening (ATP cell viability, dose-response AUC), right tumor; design: species or system human; conditions: GBM9 right tumor PDCs
Protocol: (§1) According to one embodiment, the measuring of drug sensitivity of each sample by subjecting the multiple samples to drug screening may include obtaining a cell viability curve of each sample according to a dose of each drug; and calculating an area under the curve.
(§2) GBM9 patient had tumors in the right and left frontal lobes of the brain, respectively. In this regard, 40 kinds of anticancer agents were administered to samples collected from the respective tumors, and tumor cell viability was examined.
(§3) When a curve of tumor cell viability vs drug dose is plotted, an area under the curve (AUC) may be used as an index of drug sensitivity. […]
(§4) PDCs grown in serum-free medium were seeded in 384 well plates at a density of 500 cells per well in duplicate or triplicate. […] After 6 days of incubation at 37° C. in a 5% CO2 humidified incubator, cell viability was analyzed using an adenosine triphosphate (ATP) monitoring system based on firefly luciferase (ATPLite™ 1step, PerkinElmer). At this time, viable cells were estimated using an EnVision Multilabel Reader (PerkinElmer). […] DRC fitting was performed using GraphPad Prism 5 (GraphPad) and evaluated by measuring an area under the curve (AUC) of dose response curve. After normalization, best-fit lines were determined and the AUC value of each curve was calculated using a GraphPad Prism. […]

[2] = system: left tumor-derived cells of the GBM9 patient; test: PDC-based chemical screening (ATP cell viability, dose-response AUC), left tumor; design: species or system human; conditions: GBM9 left tumor PDCs
Protocol: as §1, §2, §3, §4

[3] = 6 days, 20 μM to 4.88 nM, FIG. 6

## Nc1cc(C(F)(F)F)c(-c2cc(N3CCOCC3)nc(N3CCOCC3)n2)cn1 [BKM120, Buparlisib]
[1]; [3]
  survival rate of tumor cells with increasing drug dose: survival rates of the two tumors decreased
[1]; FIG. 6, FIG. 7
  area under the curve (AUC) of cell viability vs dose (low AUC = high drug sensitivity): relatively low
[2]; [3]
  survival rate of tumor cells with increasing drug dose: survival rates of the two tumors decreased
[2]; FIG. 6, FIG. 7
  area under the curve (AUC) of cell viability vs dose (low AUC = high drug sensitivity): relatively low
